Experiments:
[1] = target: T1, ATP-dependent translocase ABCB1 (Homo sapiens, UniProt P08183); assay: Activity at MDR1 (unknown origin) expressed in MDCK cells assessed as ATPase activity after 2 hrs by ATPlite assay; assay type: cell-based
[2] = Apparent permeability across human Caco2 cells after 2 hrs; assay type: ADME, cell-based; conditions: Caco-2
[3] = target: T2, Broad substrate specificity ATP-binding cassette transporter ABCG2 (Homo sapiens, UniProt Q9UNQ0); assay: Activity at BCRP (unknown origin) expressed in MDCK cells assessed as interference with rhodamine-123 efflux at 200 nM; assay type: cell-based; conditions: 0.2 µM
T2 sequence (Q9UNQ0 whole entry): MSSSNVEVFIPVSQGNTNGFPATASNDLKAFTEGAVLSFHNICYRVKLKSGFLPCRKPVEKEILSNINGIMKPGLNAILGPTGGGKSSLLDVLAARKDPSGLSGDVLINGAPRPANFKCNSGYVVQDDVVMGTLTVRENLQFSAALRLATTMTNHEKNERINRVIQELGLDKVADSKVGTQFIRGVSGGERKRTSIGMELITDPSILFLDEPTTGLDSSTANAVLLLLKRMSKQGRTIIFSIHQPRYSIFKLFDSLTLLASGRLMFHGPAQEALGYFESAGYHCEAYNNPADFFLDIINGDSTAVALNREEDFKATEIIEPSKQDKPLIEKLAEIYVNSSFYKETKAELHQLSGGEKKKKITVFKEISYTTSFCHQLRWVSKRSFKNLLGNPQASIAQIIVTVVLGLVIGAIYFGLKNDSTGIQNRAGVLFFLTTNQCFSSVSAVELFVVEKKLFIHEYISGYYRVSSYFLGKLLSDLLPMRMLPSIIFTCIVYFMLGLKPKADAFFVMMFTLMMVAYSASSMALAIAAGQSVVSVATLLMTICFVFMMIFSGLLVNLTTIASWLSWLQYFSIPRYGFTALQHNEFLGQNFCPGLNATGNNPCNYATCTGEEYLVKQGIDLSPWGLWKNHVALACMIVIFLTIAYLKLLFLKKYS

[4] = target: T1, ATP-dependent translocase ABCB1; assay: Activity at MDR1 (unknown origin) expressed in MDCK cells assessed as interference with calcein-AM efflux incubated for 30 mins prior to calcein-Am addition measured after 30 mins by fluorometric analysis; assay type: cell-based
[5] = target: Multidrug resistance-associated protein 1 (Homo sapiens, UniProt P33527); assay: Activity at MRP1 (unknown origin) expressed in MDCK cells assessed as interference calcein-AM efflux incubated for 30 mins prior to calcein-Am addition measured after 30 mins by fluorometric analysis; assay type: cell-based
Sequence of Multidrug resistance-associated protein 1 (P33527 whole entry): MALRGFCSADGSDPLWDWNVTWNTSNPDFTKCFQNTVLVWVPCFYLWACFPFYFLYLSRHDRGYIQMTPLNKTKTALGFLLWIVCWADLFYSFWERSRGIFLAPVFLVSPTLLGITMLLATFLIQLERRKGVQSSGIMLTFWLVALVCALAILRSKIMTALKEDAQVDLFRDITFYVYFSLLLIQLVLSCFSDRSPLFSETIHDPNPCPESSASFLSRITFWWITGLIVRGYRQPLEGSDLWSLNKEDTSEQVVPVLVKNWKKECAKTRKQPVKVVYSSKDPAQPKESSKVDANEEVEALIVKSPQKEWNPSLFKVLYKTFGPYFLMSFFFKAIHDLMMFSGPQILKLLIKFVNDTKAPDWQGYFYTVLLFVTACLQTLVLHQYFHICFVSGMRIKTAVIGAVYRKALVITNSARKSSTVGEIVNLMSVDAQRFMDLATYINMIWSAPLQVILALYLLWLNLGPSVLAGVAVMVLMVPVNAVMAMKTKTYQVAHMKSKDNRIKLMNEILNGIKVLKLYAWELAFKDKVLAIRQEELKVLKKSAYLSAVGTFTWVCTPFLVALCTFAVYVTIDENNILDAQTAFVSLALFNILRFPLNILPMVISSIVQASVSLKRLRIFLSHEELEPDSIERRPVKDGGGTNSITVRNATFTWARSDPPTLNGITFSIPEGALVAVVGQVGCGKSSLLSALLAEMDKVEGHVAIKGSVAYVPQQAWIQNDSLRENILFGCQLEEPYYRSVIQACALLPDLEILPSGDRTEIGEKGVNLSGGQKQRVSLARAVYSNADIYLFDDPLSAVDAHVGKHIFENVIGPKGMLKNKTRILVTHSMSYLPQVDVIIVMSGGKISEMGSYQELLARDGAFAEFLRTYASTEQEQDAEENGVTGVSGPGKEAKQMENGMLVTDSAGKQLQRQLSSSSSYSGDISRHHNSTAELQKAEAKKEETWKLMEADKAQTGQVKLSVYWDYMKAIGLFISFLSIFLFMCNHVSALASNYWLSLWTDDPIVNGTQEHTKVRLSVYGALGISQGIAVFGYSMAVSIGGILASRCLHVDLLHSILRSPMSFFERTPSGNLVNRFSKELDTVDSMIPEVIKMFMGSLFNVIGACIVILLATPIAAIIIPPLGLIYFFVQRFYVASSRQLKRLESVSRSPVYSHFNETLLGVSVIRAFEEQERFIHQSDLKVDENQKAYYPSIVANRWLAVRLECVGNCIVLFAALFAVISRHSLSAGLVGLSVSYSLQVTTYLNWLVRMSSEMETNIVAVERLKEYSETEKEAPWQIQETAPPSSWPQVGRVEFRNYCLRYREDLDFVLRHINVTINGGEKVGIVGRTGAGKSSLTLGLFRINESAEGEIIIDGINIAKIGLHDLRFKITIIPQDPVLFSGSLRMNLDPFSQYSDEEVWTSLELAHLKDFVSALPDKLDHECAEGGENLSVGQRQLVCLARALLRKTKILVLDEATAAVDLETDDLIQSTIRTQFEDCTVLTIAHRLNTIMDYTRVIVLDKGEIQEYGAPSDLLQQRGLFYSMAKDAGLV

[6] = target: T2, Broad substrate specificity ATP-binding cassette transporter ABCG2; assay: Activity at BCRP (unknown origin) expressed in MDCK cells assessed as interference with rhodamine-123 efflux; assay type: cell-based

T1 sequence (P08183 whole entry): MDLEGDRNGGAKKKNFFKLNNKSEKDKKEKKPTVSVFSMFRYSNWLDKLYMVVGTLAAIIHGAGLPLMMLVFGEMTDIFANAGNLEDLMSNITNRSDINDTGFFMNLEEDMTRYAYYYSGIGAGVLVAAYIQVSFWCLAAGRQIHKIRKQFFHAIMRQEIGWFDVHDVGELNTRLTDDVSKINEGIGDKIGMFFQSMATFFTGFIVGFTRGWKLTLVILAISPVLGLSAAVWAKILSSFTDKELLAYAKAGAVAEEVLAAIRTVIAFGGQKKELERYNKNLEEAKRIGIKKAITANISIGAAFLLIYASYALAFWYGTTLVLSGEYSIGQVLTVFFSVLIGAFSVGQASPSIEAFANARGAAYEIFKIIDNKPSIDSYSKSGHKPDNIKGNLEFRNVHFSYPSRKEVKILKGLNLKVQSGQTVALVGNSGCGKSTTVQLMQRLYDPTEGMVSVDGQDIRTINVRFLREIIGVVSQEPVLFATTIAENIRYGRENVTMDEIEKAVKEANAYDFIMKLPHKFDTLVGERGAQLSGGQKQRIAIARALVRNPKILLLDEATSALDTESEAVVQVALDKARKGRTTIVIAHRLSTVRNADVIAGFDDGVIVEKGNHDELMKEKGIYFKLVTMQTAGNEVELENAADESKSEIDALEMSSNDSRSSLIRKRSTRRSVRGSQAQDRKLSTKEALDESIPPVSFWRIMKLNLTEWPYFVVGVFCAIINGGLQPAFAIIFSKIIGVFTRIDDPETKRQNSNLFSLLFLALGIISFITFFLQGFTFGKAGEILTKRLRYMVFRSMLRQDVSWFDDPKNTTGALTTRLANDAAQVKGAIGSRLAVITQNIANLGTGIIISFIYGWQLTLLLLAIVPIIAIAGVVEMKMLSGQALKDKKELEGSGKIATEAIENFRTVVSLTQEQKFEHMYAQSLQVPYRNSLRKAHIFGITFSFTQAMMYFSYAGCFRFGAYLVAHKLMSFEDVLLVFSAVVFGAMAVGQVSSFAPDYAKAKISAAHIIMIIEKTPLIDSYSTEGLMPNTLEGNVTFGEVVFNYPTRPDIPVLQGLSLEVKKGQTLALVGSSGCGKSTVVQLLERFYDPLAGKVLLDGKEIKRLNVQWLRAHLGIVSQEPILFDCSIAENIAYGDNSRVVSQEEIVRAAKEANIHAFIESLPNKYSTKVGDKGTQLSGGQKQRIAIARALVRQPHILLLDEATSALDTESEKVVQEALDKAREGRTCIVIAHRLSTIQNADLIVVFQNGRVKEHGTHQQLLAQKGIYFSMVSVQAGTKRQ

| Compound | Activity [1] | Papp at 2 h [2] | Activity [3] | EC50 [4] | EC50 [5] | EC50 [6] |
| --- | --- | --- | --- | --- | --- | --- |
| COc1cc2c(cc1OC)CN(Cc1csc(-c3ccc4cc(Br)ccc4c3)n1)CC2 | Active | 0.59 ×10⁻⁶ cm/s | Not Active | – | – | – |
| COc1cc2c(cc1OC)CN(Cc1ccc(-c3ccc4ccccc4c3)o1)CC2 | Not Active | 0.33 ×10⁻⁶ cm/s | – | 7.1 µM | > 100 µM | – |
| COc1ccc2cc(-c3ccc(CN4CCc5cc(OC)c(OC)cc5C4)o3)ccc2c1 | Not Active | 0.408 ×10⁻⁶ cm/s | – | 2.9 µM | > 100 µM | – |
| COc1cc2c(cc1OC)CN(Cc1coc(-c3ccc4ccccc4c3)n1)CC2 | Not Active | 0.038 ×10⁻⁶ cm/s | – | 2.3 µM | – | – |
| COc1cc2c(cc1OC)CN(Cc1coc(-c3ccc4cc(F)ccc4c3)n1)CC2 | Not Active | 0.082 ×10⁻⁶ cm/s | – | – | – | – |
| COc1cc2c(cc1OC)CN(Cc1coc(-c3ccc4cc(Br)ccc4c3)n1)CC2 | Not Active | 0.32 ×10⁻⁶ cm/s | – | 1.8 µM | > 100 µM | – |
| COc1ccc2cc(-c3nc(CN4CCc5cc(OC)c(OC)cc5C4)co3)ccc2c1 | Active | 0.38 ×10⁻⁶ cm/s | Not Active | 0.6 µM | 14.7 µM | – |
| COc1cc2c(cc1OC)CN(Cc1coc(-c3ccc4cc(O)ccc4c3)n1)CC2 | Not Active | 0.157 ×10⁻⁶ cm/s | – | – | – | – |
| COc1cc2c(cc1OC)CN(Cc1csc(-c3ccc4ccccc4c3)n1)CC2 | Not Active | 2.37 ×10⁻⁶ cm/s | – | 3.5 µM | 3.2 µM | – |
| COc1cc2c(cc1OC)CN(Cc1csc(-c3ccc4cc(F)ccc4c3)n1)CC2 | Not Active | 0.95 ×10⁻⁶ cm/s | – | 4.8 µM | 8.8 µM | – |
| COc1ccc2cc(-c3nc(CN4CCc5cc(OC)c(OC)cc5C4)cs3)ccc2c1 | Active | 0.6 ×10⁻⁶ cm/s | Not Active | – | – | – |
| COc1cc2c(cc1OC)CN(CCCC1CCCc3c(OC)cccc31)CC2 (centres undefined) | – | – | – | – | > 100 µM | – |
| COc1cc2c(cc1OC)CN(Cc1ccc(-c3ccc(O)cc3)cc1)CC2 | – | – | – | 0.69 µM | 9.3 µM | 73 µM |
| COc1cc2c(cc1OC)CN(CC/C=C1\CCCc3c(OC)cccc31)CC2 | – | – | – | 1.5 µM | 2.8 µM | – |

Source: ChEMBL document CHEMBL2331192, “Naphthalenyl derivatives for hitting P-gp/MRP1/BCRP transporters” (Bioorg Med Chem, 2013)
